The structures appear in SMILES notation.

Assay [1] addresses Protein kinase C beta type (Homo sapiens, UniProt P05771). In words: Selectivity interaction (ProQinase) EUB0000171b PRKCB. The conditions noted are these: at 1 µM.
For assay [2], the target named is T1, Inhibitor of nuclear factor kappa-B kinase subunit epsilon (Homo sapiens) (UniProt Q14164).
T1 sequence (whole entry): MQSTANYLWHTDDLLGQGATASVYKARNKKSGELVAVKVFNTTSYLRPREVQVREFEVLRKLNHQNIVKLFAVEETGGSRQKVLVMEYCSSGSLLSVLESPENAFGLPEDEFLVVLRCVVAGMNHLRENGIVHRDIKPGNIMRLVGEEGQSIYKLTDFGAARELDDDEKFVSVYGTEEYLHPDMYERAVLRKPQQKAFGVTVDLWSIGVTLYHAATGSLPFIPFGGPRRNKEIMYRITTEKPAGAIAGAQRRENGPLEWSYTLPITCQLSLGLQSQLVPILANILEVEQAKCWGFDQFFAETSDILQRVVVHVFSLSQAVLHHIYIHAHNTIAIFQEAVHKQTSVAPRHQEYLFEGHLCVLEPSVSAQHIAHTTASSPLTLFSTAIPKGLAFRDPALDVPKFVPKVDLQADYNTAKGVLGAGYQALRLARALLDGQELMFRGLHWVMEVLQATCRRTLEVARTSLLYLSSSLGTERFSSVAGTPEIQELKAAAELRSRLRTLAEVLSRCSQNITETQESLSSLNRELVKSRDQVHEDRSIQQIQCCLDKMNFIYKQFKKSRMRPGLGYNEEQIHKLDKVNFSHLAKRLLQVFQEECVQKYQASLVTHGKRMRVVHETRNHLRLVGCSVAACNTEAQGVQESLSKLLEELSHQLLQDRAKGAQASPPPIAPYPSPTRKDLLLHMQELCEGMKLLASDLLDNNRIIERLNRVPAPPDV
The conditions noted are these: at 10 µM.

Assay [3] has as its target Serine/threonine-protein kinase SBK1 (Homo sapiens) (UniProt Q52WX2). The conditions noted are these: at 10 µM.
For assay [4], the target named is T2, Cytoplasmic tyrosine-protein kinase BMX (Homo sapiens) (UniProt P51813).
T2 sequence (whole entry): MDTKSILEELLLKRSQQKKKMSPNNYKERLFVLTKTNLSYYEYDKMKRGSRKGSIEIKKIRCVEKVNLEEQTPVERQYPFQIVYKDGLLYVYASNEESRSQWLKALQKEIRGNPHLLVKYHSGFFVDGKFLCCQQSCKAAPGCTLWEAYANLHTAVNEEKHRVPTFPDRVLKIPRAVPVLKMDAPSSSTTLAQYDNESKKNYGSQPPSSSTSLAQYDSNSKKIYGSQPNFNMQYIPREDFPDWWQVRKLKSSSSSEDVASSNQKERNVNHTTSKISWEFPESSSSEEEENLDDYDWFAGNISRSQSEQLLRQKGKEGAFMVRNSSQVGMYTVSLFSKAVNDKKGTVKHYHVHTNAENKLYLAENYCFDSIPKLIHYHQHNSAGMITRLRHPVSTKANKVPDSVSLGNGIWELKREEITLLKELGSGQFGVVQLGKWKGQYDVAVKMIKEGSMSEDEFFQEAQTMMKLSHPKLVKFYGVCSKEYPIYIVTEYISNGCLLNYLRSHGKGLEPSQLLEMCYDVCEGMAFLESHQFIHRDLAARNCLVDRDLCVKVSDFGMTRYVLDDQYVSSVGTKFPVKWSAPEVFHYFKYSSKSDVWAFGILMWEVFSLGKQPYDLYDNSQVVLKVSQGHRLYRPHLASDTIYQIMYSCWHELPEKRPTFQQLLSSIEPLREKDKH
The assay can be described thus: Selectivity interaction (KinomeScan (DiscoverX)) EUB0001079a BMX. To be noted: at 1 µM.

Assay [5] deals with Adenosine receptor A2a (Homo sapiens, UniProt P29274). In words: Selectivity interaction (Panel of non-epigenetic targets (kinases, GPCRs, ion channels, and transporters, Eurofins) ) EUB0000271b ADORA2A. The conditions noted are these: at 1 µM.
The test system of assay [6] is Tyrosine-protein kinase ABL1 (Homo sapiens), P00519 [F317I]. The assay can be described thus: (§1) Selectivity interaction (Kinase panel (Z-LYTE Assay)) EUB0001632a ABL1. The conditions noted are these: at 10 µM.
Assay [7] relates to Tyrosine-protein kinase ABL1 (Homo sapiens), P00519 [E255K]. The assay is described as §1. To be noted: at 10 µM.
The subject of assay [8] is Tyrosine-protein kinase ABL1 (Homo sapiens), P00519 [T315I]. The assay is described as §1. To be noted: at 10 µM.
Assay [9] concerns Tyrosine-protein kinase ABL1 (Homo sapiens), P00519 [Y253F]. The assay is described as §1. The conditions noted are these: at 10 µM.
The subject of assay [10] is Tyrosine-protein kinase ABL1 (Homo sapiens), P00519 [G250E]. Described as §1. To be noted: at 10 µM.
The target in assay [11] is Tyrosine-protein kinase ABL1 (Homo sapiens, UniProt P00519). Described as §1. The conditions noted are these: at 10 µM.
Assay [12] concerns the target T3, Inhibitor of nuclear factor kappa-B kinase subunit alpha (Homo sapiens) (UniProt O15111).
T3 sequence (whole entry): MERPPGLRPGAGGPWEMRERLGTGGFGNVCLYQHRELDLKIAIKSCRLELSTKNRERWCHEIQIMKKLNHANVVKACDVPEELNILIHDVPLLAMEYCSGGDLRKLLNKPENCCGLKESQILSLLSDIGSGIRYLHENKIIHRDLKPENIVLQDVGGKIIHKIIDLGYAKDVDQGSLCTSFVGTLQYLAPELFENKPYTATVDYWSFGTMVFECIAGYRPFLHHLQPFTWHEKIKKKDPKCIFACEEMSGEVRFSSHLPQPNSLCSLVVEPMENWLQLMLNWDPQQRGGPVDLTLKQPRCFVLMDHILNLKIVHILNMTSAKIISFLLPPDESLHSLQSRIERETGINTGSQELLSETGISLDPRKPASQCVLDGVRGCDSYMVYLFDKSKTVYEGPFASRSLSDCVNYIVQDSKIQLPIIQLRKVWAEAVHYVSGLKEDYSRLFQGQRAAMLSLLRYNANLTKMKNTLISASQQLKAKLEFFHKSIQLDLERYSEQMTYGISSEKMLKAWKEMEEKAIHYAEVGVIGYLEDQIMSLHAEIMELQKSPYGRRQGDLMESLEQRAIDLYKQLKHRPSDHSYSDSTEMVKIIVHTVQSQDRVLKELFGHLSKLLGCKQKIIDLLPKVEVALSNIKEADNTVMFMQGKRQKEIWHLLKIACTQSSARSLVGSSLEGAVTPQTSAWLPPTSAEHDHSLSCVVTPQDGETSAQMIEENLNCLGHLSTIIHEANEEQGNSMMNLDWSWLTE
In words: Selectivity interaction (KinomeScan (DiscoverX)) EUB0000607a CHUK. To be noted: at 10 µM.

Assay [13] concerns the target Cyclin-dependent kinase 9 (Homo sapiens, UniProt P50750). To be noted: at 10 µM.

Cyclin-dependent kinase 9, sequence (P50750 whole entry): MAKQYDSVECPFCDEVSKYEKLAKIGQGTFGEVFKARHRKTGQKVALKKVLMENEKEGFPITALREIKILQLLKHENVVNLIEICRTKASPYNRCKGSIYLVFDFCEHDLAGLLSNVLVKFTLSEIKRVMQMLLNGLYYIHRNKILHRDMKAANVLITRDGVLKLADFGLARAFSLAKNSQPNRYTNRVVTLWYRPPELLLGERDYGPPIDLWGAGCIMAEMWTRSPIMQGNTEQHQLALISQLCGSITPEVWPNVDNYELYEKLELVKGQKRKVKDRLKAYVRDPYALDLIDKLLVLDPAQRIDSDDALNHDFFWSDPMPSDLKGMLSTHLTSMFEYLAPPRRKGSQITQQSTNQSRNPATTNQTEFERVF
Protein kinase C beta type, sequence (P05771 2-671 limits assumed): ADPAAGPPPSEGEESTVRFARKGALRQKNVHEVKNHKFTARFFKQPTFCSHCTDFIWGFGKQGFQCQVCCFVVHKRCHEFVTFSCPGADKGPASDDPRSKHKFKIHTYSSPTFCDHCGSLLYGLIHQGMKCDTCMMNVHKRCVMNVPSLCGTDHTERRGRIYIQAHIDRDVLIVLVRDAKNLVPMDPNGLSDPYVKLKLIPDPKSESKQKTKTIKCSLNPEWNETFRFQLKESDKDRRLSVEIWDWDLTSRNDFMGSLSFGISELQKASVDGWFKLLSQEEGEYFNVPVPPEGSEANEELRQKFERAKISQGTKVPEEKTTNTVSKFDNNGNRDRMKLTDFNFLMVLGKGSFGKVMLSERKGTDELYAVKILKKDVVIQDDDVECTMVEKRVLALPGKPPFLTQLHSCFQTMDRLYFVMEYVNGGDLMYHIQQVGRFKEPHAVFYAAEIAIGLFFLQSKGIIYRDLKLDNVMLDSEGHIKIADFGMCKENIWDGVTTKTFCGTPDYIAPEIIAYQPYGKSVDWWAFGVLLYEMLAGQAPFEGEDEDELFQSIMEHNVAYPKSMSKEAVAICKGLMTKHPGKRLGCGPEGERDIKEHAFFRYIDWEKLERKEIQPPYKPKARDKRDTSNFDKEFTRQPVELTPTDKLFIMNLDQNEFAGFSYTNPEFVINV
Adenosine receptor A2a, sequence (P29274 whole entry): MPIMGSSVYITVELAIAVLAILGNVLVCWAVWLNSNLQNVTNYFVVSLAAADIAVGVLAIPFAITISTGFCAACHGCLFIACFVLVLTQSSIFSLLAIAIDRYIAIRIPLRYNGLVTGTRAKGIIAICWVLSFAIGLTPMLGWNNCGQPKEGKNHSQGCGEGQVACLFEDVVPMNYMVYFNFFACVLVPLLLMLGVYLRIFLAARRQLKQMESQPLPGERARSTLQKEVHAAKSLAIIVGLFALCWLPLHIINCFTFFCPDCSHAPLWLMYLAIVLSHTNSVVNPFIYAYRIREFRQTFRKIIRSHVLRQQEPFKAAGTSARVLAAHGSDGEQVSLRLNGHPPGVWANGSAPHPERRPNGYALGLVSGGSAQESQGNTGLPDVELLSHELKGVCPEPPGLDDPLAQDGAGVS
Serine/threonine-protein kinase SBK1 (Homo sapiens), sequence (Q52WX2 whole entry): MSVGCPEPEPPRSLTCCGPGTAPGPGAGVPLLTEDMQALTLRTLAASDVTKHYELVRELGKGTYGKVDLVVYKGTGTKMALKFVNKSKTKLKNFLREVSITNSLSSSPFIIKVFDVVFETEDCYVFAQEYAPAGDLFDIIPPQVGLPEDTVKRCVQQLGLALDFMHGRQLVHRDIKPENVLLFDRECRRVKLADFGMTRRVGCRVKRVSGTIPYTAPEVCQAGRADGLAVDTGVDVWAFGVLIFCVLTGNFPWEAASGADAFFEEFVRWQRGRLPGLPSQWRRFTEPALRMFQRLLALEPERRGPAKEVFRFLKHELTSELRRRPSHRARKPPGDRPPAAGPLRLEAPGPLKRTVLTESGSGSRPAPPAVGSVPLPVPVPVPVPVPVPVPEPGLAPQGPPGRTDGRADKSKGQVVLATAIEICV

Consider `C=CC(=O)Nc1cccc(C(=O)Nc2ccc(Nc3cc(-c4[nH]c(SC)nc4C)ccn3)cc2)c1`, for which the % of control in assay [1] was found to be 103%.
Regarding `Cc1cc([C@@H](C)Nc2ccccc2C(=O)O)c2nc(N3CCOCC3)cc(=O)n2c1` [AZD-6482], the figures for the % of control in assay [2] and in [3] were 85% and 100%, respectively.
For `Nc1cnc(N2CCc3cc(S(=O)(=O)Nc4c(F)cc(Cl)cc4F)cc(N4CCCC4=O)c32)nc1` [TP-020n], the % of control in assay [4] came to 100%.
`Cc1cc(C)cc([C@@H]2c3cc(C)ccc3NC(=O)CN2C(=O)c2ccc(Br)s2)c1`: the % of inhibition in assay [5] was determined as 2%.
As to `Cn1cc(-n2cnc3c(NCc4nc5cc(Cl)c(Cl)cc5[nH]4)nc(N4CCOCC4)nc32)cn1`, the % of control in assay [6] is 1.78%; in assay [7] it was -3.74%; in assay [8], -2.31%; in assay [9], 2.36%; in [10], 2.49%; in [11], -6.52%.
Consider `CNC(=O)Nc1ccc(-c2nc(N3CC4CCC(C3)O4)c3cnn(C4CCC5(CC4)OCCO5)c3n2)cc1`, for which the % of control in [12] was determined as 100%.
`COCC(=O)NC/C=C/c1ccc2ncnc(Nc3ccc(Oc4ccc(C)nc4)c(C)c3)c2c1` [CP-724714]: in assay [13], the % of control is 100%.

The values are drawn from ChEMBL document CHEMBL5465560, “Selectivity Literature for EUbOPEN Chemogenomic Library” (2024).
